From article PMC11014671, “Small molecules that disrupt RAD54-BLM interaction hamper tumor proliferation in colon cancer chemoresistance models” (The Journal of Clinical Investigation, 2024) come the findings set out here.

One assay addresses T1, RAD54 (Homo sapiens, UniProt Q92698).
T1 construct: gene RAD54L; His-RAD54
T1 sequence (Q92698 1-747): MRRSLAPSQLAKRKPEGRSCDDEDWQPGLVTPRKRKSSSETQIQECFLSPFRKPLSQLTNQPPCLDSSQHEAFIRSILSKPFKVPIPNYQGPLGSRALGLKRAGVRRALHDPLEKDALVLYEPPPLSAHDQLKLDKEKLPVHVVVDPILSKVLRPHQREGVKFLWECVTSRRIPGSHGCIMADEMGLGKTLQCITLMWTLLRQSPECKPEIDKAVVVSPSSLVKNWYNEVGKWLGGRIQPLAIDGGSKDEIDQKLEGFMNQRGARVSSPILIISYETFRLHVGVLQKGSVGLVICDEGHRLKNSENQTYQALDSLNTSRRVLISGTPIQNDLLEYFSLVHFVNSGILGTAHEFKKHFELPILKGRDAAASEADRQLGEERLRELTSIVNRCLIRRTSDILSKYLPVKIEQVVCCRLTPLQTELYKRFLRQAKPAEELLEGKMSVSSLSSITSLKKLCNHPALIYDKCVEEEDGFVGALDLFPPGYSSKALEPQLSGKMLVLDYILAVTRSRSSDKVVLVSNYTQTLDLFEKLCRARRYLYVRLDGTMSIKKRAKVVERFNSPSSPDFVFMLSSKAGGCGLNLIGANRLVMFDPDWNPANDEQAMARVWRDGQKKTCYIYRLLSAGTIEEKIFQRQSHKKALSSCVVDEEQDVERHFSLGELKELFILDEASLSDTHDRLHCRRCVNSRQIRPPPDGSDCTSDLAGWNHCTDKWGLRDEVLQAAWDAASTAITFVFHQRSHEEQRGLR
Briefly: biolayer interferometry (His-RAD54 immobilized); tryptophan fluorescence quenching. The assay is classed as binding. Background: Biolayer interferometry detects binding as a change in optical thickness at a sensor tip.

For assay [1], the target named is His-RAD54 WT (full-length recombinant RAD54) (UniProt Q92698). Briefly: BLI; Octet; His-RAD54 WT immobilized onto Ni-NTA sensor, different concentrations of biotin BLM_peptide.

The Kd is the constant that tells how readily two partners part at equilibrium. In the case of `CC(=O)Nc1nnc(S(N)(=O)=O)s1` [C3, acetazolamide], the affinity at RAD54, expressed as Kd, was 55.8 µM.

For biotinylated BLM (aa 181–212) peptide, the Kd in assay [1] was found to be 0.0108 µM.
